Laboratory results published in patent US10676471B2, “Cycloalkyl-linked diheterocycle derivatives” (Pfizer Inc., priority 2014, dated 2020).

System: BT20 Cell
Test: Cancer Cell Lysate Total L-Glutamate Assay
Type: cell-based
Settings: Homo sapiens, BT-20, 2 h, total L-glutamate in cell lysate, BT20 cells, 2 hour incubation with test compound
Summary of the method: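 BT20 and other cancer lines at ~80% confluence were given fresh L-glutamine-containing medium, then treated with serially diluted compound (0.5% DMSO) for 2 hours at 37° C. Washed cells were lysed by freeze-thaw and sonication. Lysate glutamate was measured via glutamate oxidase/HRP/50 μM Amplex Red fluorescence (ex 530-560, em 585 nm); IC50 by four-parameter logistic fit.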

| IC50 | SMILES |
| --- | --- |
| 50.7 nM | C[C@H](C(=O)Nc1nnc([C@H]2CC[C@@H](Cc3nnc(NC(=O)[C@H](C)c4cccnc4)s3)C2)s1)c1cccnc1 (single isomer, unassigned) [Example 35, 2-(pyridin-3-yl)-N-(5-{[(cis)-3-(5-{[2-(pyridin-3-yl)propanoyl]amino}-1,3,4-thiadiazol-2-yl)cyclopentyl]methyl}-1,3,4-thiadiazol-2-yl)propanamide] |
| 284 nM | C[C@@H](C(=O)Nc1nnc(C[C@H]2CC[C@@H](c3nnc(NC(=O)[C@H](C)c4cccnc4)s3)C2)s1)c1cccnc1 (single isomer, unassigned) [Example 36, 2-(pyridin-3-yl)-N-(5-{[(cis)-3-(5-{[2-(pyridin-3-yl)propanoyl]amino}-1,3,4-thiadiazol-2-yl)cyclopentyl]methyl}-1,3,4-thiadiazol-2-yl)propanamide] |
| 19.4 nM | C[C@@H](C(=O)Nc1nnc(C[C@@H]2CC[C@H](c3nnc(NC(=O)[C@H](C)c4cccnc4)s3)C2)s1)c1cccnc1 (single isomer, unassigned) [Example 37, 2-(pyridin-3-yl)-N-(5-{[(cis)-3-(5-{[2-(pyridin-3-yl)propanoyl]amino}-1,3,4-thiadiazol-2-yl)cyclopentyl]methyl}-1,3,4-thiadiazol-2-yl)propanamide] |
| 136 nM | C[C@H](C(=O)Nc1nnc(C[C@@H]2CC[C@H](c3nnc(NC(=O)[C@H](C)c4cccnc4)s3)C2)s1)c1cccnc1 (single isomer, unassigned) [Example 38, 2-(pyridin-3-yl)-N-(5-{[(cis)-3-(5-{[2-(pyridin-3-yl)propanoyl]amino}-1,3,4-thiadiazol-2-yl)cyclopentyl]methyl}-1,3,4-thiadiazol-2-yl)propanamide] |
| 4580 nM | Nc1nnc(C[C@@H]2CC[C@H](c3nnc(N)s3)C2)s1 (single isomer, unassigned) [Example 40] |
| > 40400 nM | Nc1nnc(C[C@H]2CC[C@@H](c3nnc(N)s3)C2)s1 (single isomer, unassigned) [Example 41] |
| 5.5 nM | CC(=O)Nc1nnc(C[C@@H]2CC[C@H](c3nnc(NC(=O)Cc4ccccc4)s3)C2)s1 (single isomer, unassigned) [Example 44, N-{5-[(cis)-3-{[5-(acetylamino)-1,3,4-thiadiazol-2-yl]methyl}cyclopentyl]-1,3,4-thiadiazol-2-yl}-2-phenylacetamide] |
| 295 nM | CC(=O)Nc1nnc(C[C@H]2CC[C@@H](c3nnc(NC(=O)Cc4ccccc4)s3)C2)s1 (single isomer, unassigned) [Example 45, N-{5-[(cis)-3-{[5-(acetylamino)-1,3,4-thiadiazol-2-yl]methyl}cyclopentyl]-1,3,4-thiadiazol-2-yl}-2-phenylacetamide] |
| 8750 nM | CC(=O)Nc1nnc([C@@H]2CC[C@H](Cc3nnc(NC(=O)Cc4cncnc4)s3)C2)s1 (single isomer, unassigned) [Example 50, N-[5-({(cis)-3-[5-(acetylamino)-1,3,4-thiadiazol-2-yl]cyclopentyl}methyl)-1,3,4-thiadiazol-2-yl]-2-(pyrimidin-5-yl)acetamide] |
| 64.5 nM | CC(=O)Nc1nnc([C@H]2CC[C@@H](Cc3nnc(NC(=O)Cc4cncnc4)s3)C2)s1 (single isomer, unassigned) [Example 51, N-[5-({(cis)-3-[5-(acetylamino)-1,3,4-thiadiazol-2-yl]cyclopentyl}methyl)-1,3,4-thiadiazol-2-yl]-2-(pyrimidin-5-yl)acetamide] |
| 6.8 nM | CC(=O)Nc1nnc([C@H]2CC[C@@H](Cc3nnc(NC(=O)Cc4ccc(C)nc4)s3)C2)s1 (single isomer, unassigned) [Example 53, N-[5-({(cis)-3-[5-(acetylamino)-1,3,4-thiadiazol-2-yl]cyclopentyl}methyl)-1,3,4-thiadiazol-2-yl]-2-(6-methylpyridin-3-yl)acetamide] |
| 1280 nM | CC(=O)Nc1nnc([C@@H]2CC[C@H](Cc3nnc(NC(=O)Cc4ccc(C)nc4)s3)C2)s1 (single isomer, unassigned) [Example 54, N-[5-({(cis)-3-[5-(acetylamino)-1,3,4-thiadiazol-2-yl]cyclopentyl}methyl)-1,3,4-thiadiazol-2-yl]-2-(6-methylpyridin-3-yl)acetamide] |
| 2700 nM | CC(=O)Nc1nnc(C[C@H]2CC[C@@H](c3nnc(NC(=O)Cc4ccccn4)s3)C2)s1 (single isomer, unassigned) [Example 56, N-{5-[(cis)-3-{[5-(acetylamino)-1,3,4-thiadiazol-2-yl]methyl}cyclopentyl]-1,3,4-thiadiazol-2-yl}-2-(pyridin-2-yl)acetamide] |
| 21.4 nM | CC(=O)Nc1nnc(C[C@@H]2CC[C@H](c3nnc(NC(=O)Cc4ccccn4)s3)C2)s1 (single isomer, unassigned) [Example 57, N-{5-[(cis)-3-{[5-(acetylamino)-1,3,4-thiadiazol-2-yl]methyl}cyclopentyl]-1,3,4-thiadiazol-2-yl}-2-(pyridin-2-yl)acetamide] |
| 276 nM | CC(=O)Nc1nnc(C[C@@H]2CC[C@H](c3nnc(NC(=O)Cc4cncnc4)s3)C2)s1 (single isomer, unassigned) [Example 58, N-{5-[(cis)-3-{[5-(acetylamino)-1,3,4-thiadiazol-2-yl]methyl}cyclopentyl]-1,3,4-thiadiazol-2-yl}-2-(pyrimidin-5-yl)acetamide] |
| 7760 nM | CC(=O)Nc1nnc(C[C@H]2CC[C@@H](c3nnc(NC(=O)Cc4cncnc4)s3)C2)s1 (single isomer, unassigned) [Example 59, N-{5-[(cis)-3-{[5-(acetylamino)-1,3,4-thiadiazol-2-yl]methyl}cyclopentyl]-1,3,4-thiadiazol-2-yl}-2-(pyrimidin-5-yl)acetamide] |
| 38.5 nM | CC(=O)Nc1nnc(C[C@H]2C[C@@H](c3nnc(NC(C)=O)s3)C2)s1 (single isomer, unassigned) [Example 62, N-[5-({cis-3-[5-(acetylamino)-1,3,4-thiadiazol-2-yl]cyclobutyl}methyl)-1,3,4-thiadiazol-2-yl]acetamide] |
| 110 nM | CC(=O)Nc1nnc(C[C@H]2C[C@H](c3nnc(NC(C)=O)s3)C2)s1 (single isomer, unassigned) [Example 63, N-[5-({trans-3-[5-(acetylamino)-1,3,4-thiadiazol-2-yl]cyclobutyl}methyl)-1,3,4-thiadiazol-2-yl]acetamide] |
| 71.2 nM | Nc1nnc(CC2CC[C@H](c3nnc(NC(=O)Cc4ccccc4)s3)C2)s1 (single isomer, unassigned) [Example 64, N-(5-{(cis)-3-[(5-amino-1,3,4-thiadiazol-2-yl)methyl]cyclopentyl}-1,3,4-thiadiazol-2-yl)-2-phenylacetamide] |
| 1820 nM | Nc1nnc(CC2CC[C@@H](c3nnc(NC(=O)Cc4ccccc4)s3)C2)s1 (single isomer, unassigned) [Example 65, N-(5-{(cis)-3-[(5-amino-1,3,4-thiadiazol-2-yl)methyl]cyclopentyl}-1,3,4-thiadiazol-2-yl)-2-phenylacetamide] |
| 7.1 nM | CC(=O)Nc1ccc(C[C@H]2CC[C@@H](c3nnc(NC(=O)Cc4ccccn4)s3)C2)nn1 (single isomer, unassigned) [Example 68, N-{5-[(cis)-3-{[6-(acetylamino)pyridazin-3-yl]methyl}cyclopentyl]-1,3,4-thiadiazol-2-yl}-2-(pyridin-2-yl)acetamide] |
| 2.5 nM | CC(=O)Nc1ccc(C[C@@H]2CC[C@H](c3nnc(NC(=O)Cc4ccccn4)s3)C2)nn1 (single isomer, unassigned) [Example 69, N-{5-[(cis)-3-{[6-(acetylamino)pyridazin-3-yl]methyl}cyclopentyl]-1,3,4-thiadiazol-2-yl}-2-(pyridin-2-yl)acetamide] |
| 2.7 nM | O=C(Cc1ccccn1)Nc1ccc(C[C@H]2CC[C@@H](c3nnc(NC(=O)Cc4ccccn4)s3)C2)nn1 (single isomer, unassigned) [Example 71, 2-(pyridin-2-yl)-N-{5-[(cis)-3-({6-[(pyridin-2-ylacetyl)amino]pyridazin-3-yl}methyl)cyclopentyl]-1,3,4-thiadiazol-2-yl}acetamide] |
| 0.9 nM | O=C(Cc1ccccn1)Nc1ccc(C[C@@H]2CC[C@H](c3nnc(NC(=O)Cc4ccccn4)s3)C2)nn1 (single isomer, unassigned) [Example 72, 2-(pyridin-2-yl)-N-{5-[(cis)-3-({6-[(pyridin-2-ylacetyl)amino]pyridazin-3-yl}methyl)cyclopentyl]-1,3,4-thiadiazol-2-yl}acetamide] |
| 0.7 nM | CCC(=O)Nc1ccc(C[C@H]2C[C@@H](c3nnc(NC(=O)Cc4ccccn4)s3)C2)nn1 (single isomer, unassigned) [Example 73] |
| 3.4 nM | O=C(Cc1ccccn1)Nc1ccc(C[C@H]2CC[C@@H](c3nnc(Nc4ccccn4)s3)C2)nn1 (single isomer, unassigned) [Example 74, 2-(pyridin-2-yl)-N-[6-({(cis)-3-[5-(pyridin-2-ylamino)-1,3,4-thiadiazol-2-yl]cyclopentyl}methyl)pyridazin-3-yl]acetamide] |
| 1.1 nM | O=C(Cc1ccccn1)Nc1ccc(C[C@@H]2CC[C@H](c3nnc(Nc4ccccn4)s3)C2)nn1 (single isomer, unassigned) [Example 75, 2-(pyridin-2-yl)-N-[6-({(cis)-3-[5-(pyridin-2-ylamino)-1,3,4-thiadiazol-2-yl]cyclopentyl}methyl)pyridazin-3-yl]acetamide] |
| 0.4 nM | CC(C)C(=O)Nc1ccc(C[C@@H]2CC[C@H](c3nnc(NC(=O)Cc4ccccn4)s3)C2)nn1 (single isomer, unassigned) [Example 77, 2-methyl-N-(6-{[(cis)-3-{5-[(pyridin-2-ylacetyl)amino]-1,3,4-thiadiazol-2-yl}cyclopentyl]methyl}pyridazin-3-yl)propanamide] |
